Test results: US11813264B2, “PAR1 modulation to alter myelination” (Mayo Foundation for Medical Education and Research, priority 2014, dated 2023)
Where no end group is shown, it is not given here.

What was measured:
[1] = tested on: oligodendrocyte progenitor cells (OPCs); test: OPC process outgrowth; assay type: cell-based, mouse; settings: 24 h; for OPC process extension / outgrowth: Klk6 150 nM, thrombin 135 nM, Klk1 150 nM
Method: (§1) Oligodendrocyte Cultures: Purified cortical oligodendrocyte progenitor cells (OPCs) and differentiated oligodendrocytes were isolated from mixed glial cultures derived from postnatal day 1 mice (McCarthy and de Vellis, J Cell Blot 85:890-902, 1980). Glial cultures were grown in media containing DMEM, 2 mM Glutamax, 1 mM sodium pyruvate, 20 mM HEPES, and 10% heat-inactivated fetal calf serum (Atlanta Biologicals, Lawrenceville, GA). OPCs were isolated from 10 days-in-vitro (DIV) mixed glial cultures by overnight shaking and purified by differential adhesion. OPCs were seeded in defined Neurobasal A media containing 1% N2, 50 U/mL penicillin/streptomycin, 2 mM Glutamax, 1 mM sodium pyruvate, 0.45% glucose, and 50 μM β-mercaptoethanol (Sigma Aldrich, USA). OPCs were seeded at 3×10^4/cm^2 onto tissue culture plastic or 12 mm glass cover slips coated with poly-L-lysine (PLL, 10 μg/mL). After 24 h, cultures were 92-98% immunoreactive (IR) for sulfatide (O4) and by 72 hours at least 80% were also MBP-IR.
(§2) PAR agonist-induced changes in oligodendrocyte morphology: To determine the effects of recombinant Klk6, Klk1, thrombin, or PAR1-AP on oligodendroglia, 3 DIV PAR1^+/+, PAR1^−/−, and PAR2^−/− oligodendrocytes, PAR1^+/+ OPCs immediately post purification, or Oli-neu cells were grown on cover slips in the presence of agonists for 24 h. For ATP toxicity assays, oligodendrocytes were incubated with ATP (50 μM, Sigma Aldrich) in the presence of Klk6 or Klk1. Following each treatment, oligodendrocyte and OPC cultures were immunolabeled for O4 to visualize the cell body and processes. Oli-neu processes were visualized by staining the actin cytoskeleton with Cy3-conjugated Phalloidin.
(§3) To assess the effects of Klk6 and other PAR1 agonists on oligodendrocyte morphology and process stability, 20× digital micrographs were overlaid with a 780 μm^2 grid and ImageJ software 1.45r (National Institutes of Health) used to record cell number and the number of processes crossing horizontal grid lines (Scarisbrick et al., Brain 125:1283-1296, 2002). Data are expressed as the mean number of O4^+ or Phalloidin^+ processes per DAPI^+ cell (±SEM).
(§4) Changes in OPC or oligodendrocyte morphology were quantified from five microscopic fields per cover slip with the mean and SEM calculated across three cover slips per experiment. Each experiment was repeated at least twice using independent cultures. Analysis of oligodendrocyte morphology was performed without knowledge of treatment groups.

[2] = tested on: Erk1/2 phosphorylation; test: Klk6-PAR signaling assay, Erk1/2 phosphorylation by Western blot in Oli-neu; assay type: cell-based, mouse; settings: treatment alone; Klk6 10 minutes
Method: Klk6-PAR signaling assays: To examine the ability of Klk6 to mediate PAR-dependent signaling in oligodendrocytes, Oli-neu oligodendroglia (3.5×10^5 cells/well in six-well plates) were treated with Klk6 (150 nM) for 10 min, followed by protein harvest. Cell lysates were analyzed for phosphorylated or nonphosphorylated Erk1/2 by Western blot. In experiments to determine the role of PARs in Klk6 signaling, Oli-neu were preincubated with the PAR1 antagonist, SCH79797 dihydrochloride (50 nM, Tocris Biosciences, Minneapolis, MN) for 30 minutes prior to Klk6 application.
Western blot: Oli-neu lysates were obtained using a buffer containing 1% NP40, 0.5% deoxycholate, 10% glycerol, and 20 mM Tris base and separated on SDS-polyacrylamide gels prior to transfer. Membranes were blocked with 5% milk in TBS-T and incubated overnight with primary antibodies including rabbit anti-phospho-Erk1/2 (1:1,000, Cell Signaling Technology, Danvers, MA), followed with a species-appropriate horseradish peroxidase-conjugated secondary antibody (1:20,000 GE Healthcare Unlimited, UK). Signal was detected using Chemiluminescence Supersignal Pico (Pierce, Rockford, IL). Western blots were repeated three times from independent cultures, scanned, and quantified by densitometry (BioRad Quantity One 1-D Analysis Software, BioRad, Hercules, CA). Erk1/2 signal was normalized to its nonphosphorylated form. Equal loading was verified by reprobing blots for […] (Novus Biologicals, Littleton, CO).

[3] = tested on: Oli-neu oligodendrocytes; test: Process retraction in Oli-neu oligodendrocytes (Phalloidin+ processes per cell); assay type: cell-based, mouse; settings: 24 hours, PAR1-AP 100 μM, Klk1 300 nM; for number of processes per cell: Klk6 30, 150, 300 nM, thrombin 270 nM
Method: (§5) Oli-neu oligodendrocytes are derived from mouse primary oligodendrocyte cultures retrovirally transduced to constitutively express the t-neu oncogene (Jung et al., Eur J Neurosci 7:1245-1265, 1995). All morphology, signaling, and myelin gene expression studies using Oli-neu oligodendrocytes were performed in media containing DMEM, 1% N2, 2 mM Glutamax, 1 mM sodium pyruvate, 20 mM HEPES buffer, and 50 μM β-mercaptoethanol (Sigma Aldrich. To evaluate PAR and Klk6 gene expression in Oli-neu (Table 2), cells were differentiated by treatment with 1 mM N^6, 2′-O-dibutyryladenosine 3′, 5′-cyclic monophosphate disodium salt (dbcAMP) for 72 hours prior to harvesting for RNA isolation. All cells were maintained at 37° C. in 95% air and 5% CO2. Cell culture reagents were obtained from Life Technologies (Carlsbad, CA) unless otherwise indicated. All cell culture experiments were performed in triplicate and repeated at least twice.
as §2, §3

[4] = tested on: primary oligodendrocyte cultures (3 DIV); test: Oligodendrocyte morphological differentiation scoring (simple, incomplete, complete, membrane), process and cell number; assay type: cell-based, mouse
Method: as §1, §2, §3
(§6) The extent of oligodendrocyte morphological differentiation was determined by scoring O4^+/DAPI^+ oligodendrocyte morphology as simple (only primary processes, no secondary branching), incomplete (one or more primary process without secondary branching), complete (all primary processes with secondary branching), or membrane (complete secondary branching with membrane sheets) (Huang et al., Nat Neurosci 14:45-53, 2011). The mean number of cells in each morphology class was determined across treatments and expressed as percent of total O4^+/DAPI^+ cells.
as §4

[5] = tested on: primary oligodendrocyte cultures (3 DIV); test: ATP toxicity assay in oligodendrocytes; assay type: cell-based, mouse
Method: as §2, §3, §6, §4

[6] = tested on: PLP and MBP RNA expression; test: Myelin gene expression (PLP, MBP RNA) in Oli-neu oligodendrocytes, quantitative RT-PCR; assay type: cell-based, mouse; settings: for PLP expression: 24 hours, Klk6 300 nM, thrombin 270 nM, PAR1-AP 100 μM, Klk1 300 nM
Method: as §5
Expression of oligodendrocyte PARs and Klk6-real-time quantitative PCR: Total RNA was isolated from cultured cells using RNA STAT-60 (Tel-Test, Friendswood, TX). Klk6, PAR1, or PAR2 RNA expression was determined in 0.5 μg of RNA with the iScript one-step RT-PCR kit with SYBR® Green and the iCycler iQ5 system (BioRad, Hercules, CA). Transcript copy number was determined using a standard curve prepared by parallel amplification of cDNA clones diluted to known copy number (Christophi et al., J Neurochem 91:1439-1449, 2004). Amplification of the housekeeping gene glyceraldehyde phosphate 3-dehydrogenase (GAPDH) was used to control for loading. The mean and standard error (SEM) of transcript copy number was determined and data expressed as RNA copy number on a logarithmic scale.
Regulation of oligodendrocyte myelin gene expression by PAR1 agonists: Primary murine oligodendrocytes (3 DIV) or Oli-neu oligodendrocytes were seeded at 3.5×10^5 cells/well in six-well tissue culture plates. Cells were then treated with Klk6 (30-300 nM), Klk1 (300 nM), thrombin (270 nM), or PAR1-AP (100 μM) for 24 hours prior to RNA isolation. Expression of myelin-associated genes, PLP, and MBP was examined by real-time quantitative RT-PCR. Expression levels of target genes were normalized to GAPDH and expressed as percent control.

[7] = tested on: spinal cord white matter; test: Microinjection of Klk6 or PAR1-AP into spinal cord dorsal column white matter; assay type: in vivo, mouse
Method: In vivo effects of excess Klk6 or PAR1-AP in spinal cord white matter: All mice were administered Buprenorphine preoperatively (Buprenex, 0.03 mg/kg, intraperitoneal (i.p.), Reckitt Benckise, Slough, UK) and every 12 hours for the first 48 hours following surgery. Surgical anesthesia was induced in age-matched male C57BL6/J or PAR12/2 mice using Ketamine (Ketaset, 80 mg/kg, Fort Dodge Animal Health, Fort Dodge, IA) and Xylazine i.p. (Anased, 10 mg/kg, Lloyd Laboratories, Shenendoah, IA). A thoracic (T11-T12) laminectomy was performed and a 30-40 μm glass capillary needle inserted into a 10 μL gas-tight Hamilton Syringe (Hamilton Company, Reno, NV) used to deliver 2 μL of Klk6 (0.01 μg/μL (300 nM)), PAR1-AP (0.01 μg/μL (100 μM)), or vehicle (physiologic saline) alone (n=3 for each treatment group) using a stereotaxic injection system (Stoelting, Wood Dale, IL). Under micromanipulator control (MyNeurolab, Richmond, IL), the needle was inserted 350 μm into the dorsal column, infusion carried out over 5 minutes and the needle left in place for 3 minutes to avoid backflow. All mice received 0.5 mL of sterile saline and Baytril (2.5 mg/kg, Bayer Healthcare, Shawnee Mission, KS) i.p. postoperatively.
Seventy-two hours after microinjection of PAR1 agonists, mice were deeply anesthetized with Nembutal (50 mg/kg, i.p., Lundbeck, Deerfield, IL) and perfused transcardially with 4% PFA. Two millimeter transverse spinal cord segments encompassing the microinjection epicenter as well as 2 mm rostral and caudal were embedded in paraffin. Six micrometer sections were cut and slide mounted serially. Every sixth slide was stained with hematoxylin and eosin (H&E). Adjacent sections were immunostained for oligodendroglia using an antibody specific for CC-1/APC (ab16794, AbCam, Cambridge, MA), myelin using an antibody recognizing MBP (MAB386, Millipore, Bedford, MA), and standard avidin-biotin immunoperoxidase techniques (Scarisbrick et al., J Comp Neurol 431:347-361, 2001; and Scarisbrick et al. 2012b, supra). Stained sections were cover slipped with Permount (Fisher Scientific, Pittsburgh, PA) containing 2 mg/mL bisbenzamide to visualize nuclei (Sigma Aldrich).
Measurements of white matter lesion area were based on signs of pathology (vacuolation, tissue destruction, hemorrhage) in 20× digital images of H&E stained sections. The largest lesion area in each animal was used to determine mean maximal lesion area and expressed in μm^2. The integrity of MBP immunoreactivity was assessed in sections for 2,000 μm rostrocaudal to the microinjection site. The number of dorsal column CC-1^+/DAPI^+ cells was quantified in sections across […] of spinal cord extending rostrocaudal to the epicenter. The mean area of dorsal column white matter in the intact spinal cord was approximately […]. To put the number of CC-1^+ oligodendrocytes into context, the mean number CC-1V cells per mm^2 was evaluated as the mean number per […]. Sections stained for CC-1 were also stained for GFAP (Sigma Aldrich), allowing for the exclusion of CC-1^+ astrocytes; however, no examples of double labeled cells were observed.

[8] = Klk6 150 nM, Klk1 300 nM, 24 hours

Klk1: Recombinant murine Klk1 expressed using a baculovirus system
number of OPCs [1]: no effect | OPC process extension / outgrowth [1]: comparable to controls | Erk1/2 phosphorylation [2]: No significant changes | Oli-neu cell number ([3]; Klk6 30 nM): no effect | number of processes per cell [3]: no effect | oligodendrocyte morphology ([4]; 300 nM): did not significantly impact | oligodendrocyte number [4, 8]: did not significantly impact | processes per cell [4, 8]: did not significantly impact | ATP-induced oligodendrocyte loss ([5]; co-application with ATP): did not increase | number of processes per oligodendrocyte ([5]; co-application with ATP 50 μM): did not impact | oligodendrocytes with membrane morphology ([5]; co-application with ATP 50 μM): significant decrease

thrombin
number of OPCs [1]: no effect | OPC process extension / outgrowth [1]: inhibited | number of processes per cell [3]: significant decrease | PLP expression [6]: significantly decreased

Nc1ncnc2c1ncn2[C@@H]1O[C@H](COP(=O)(O)OP(=O)(O)OP(=O)(O)O)[C@@H](O)[C@H]1O [ATP, reference compound]
number of processes per oligodendrocyte ([5]; ATP 50 μM alone): two-fold reduction | cells with complete morphology ([5]; ATP 50 μM alone, 24 h): significant decrease | cells with membrane morphology ([5]; ATP 50 μM alone, 24 h): small, but significant increase | percentage of cells with simple morphology ([5]; ATP 50 μM alone, 24 h): significant increase | oligodendrocyte number relative to control ([5]; ATP alone): significant decrease

TFLLR-amide (TFLLR-NH2) [PAR1-AP, reference compound]
number of processes per cell [3]: significant decrease | maximal lesion area relative to saline alone ([7]; PAR1+/+ mice): enhanced | reduction of CC-1+ cells in dorsal column white matter ([7]; PAR1+/+ mice): ~15% | loss of MBP-immunoreactivity relative to saline alone ([7]; PAR1+/+ mice, 72 hours): ~45% | rostrocaudal white matter pathology ([7]; PAR1+/+ mice, 0.02 μg, 72 hours): 1,026.0±105.3 μm | white matter pathology ([7]; PAR1-/- mice): absent | PLP expression [6]: significantly decreased

N#CC(=C(/N)Sc1ccccc1N)/C(C#N)=C(\N)Sc1ccccc1N [U0126, reference compound]
PLP RNA expression ([6]; U0126 alone): No significant change
